{"source": "ChEMBL document CHEMBL5727551", "about": "“5-(n-[6,5]-fused bicyclic aryl tetrahydroisoquinolin-6-yl) pyridin-3-yl acetic acid derivatives as inhibitors of human immunodeficiency virus replication” (2020)", "test": "Inhibition of HIV Replication: A recombinant NL-RLuc proviral clone was constructed in which a section of the nef gene from NL4-3 was replaced with the Renilla Luciferase gene. This virus is fully infectious and can undergo multiple cycles of replication in cell culture. In addition, the luciferous reporter provides a simple and easy method for quantitating the extent of virus growth and consequently, the antiviral activity of test compounds. The plasmid pNLRLuc contains the proviral NL-Rluc DNA cloned into pUC 18 at the PvuII site. The NL-RLuc virus was prepared by transfection of 293T cells with the plasmid pNLRLuc. Transfections were performed using the LipofectAMINE PLUS kit from Invitrogen (Carlsbad, Calif.) according to the manufacturer and the virus generated was titered in MT-2 cells. For susceptibility analyses, the titrated virus was used to infect MT-2 cells in the presence of compound, and after 5 days of incubation, cells were processed and quantitated for virus growth by the amount of expressed luciferase. Assay media was RPMI 1640 supplemented with 10% heat inactivated fetal bovine serum (FBS), 100 units/ml penicillin G/100 units/ml streptomycin, 10 mM HEPES buffer pH 7.55 and 2 mM L-glutamine. The results from at least 2 experiments were used to calculate the EC50 values. Luciferase was quantitated using the Dual Luciferase kit from Promega (Madison, Wis.). […]", "format": "cell-based", "data": [{"compound": "Cc1nc(C)c([C@H](OC(C)(C)C)C(=O)O)c(N2CCC(C)(C)CC2)c1-c1ccc2c(c1)CCN(c1ncnc3cc[nH]c13)C2", "values": [{"measurement": "EC50", "value": 20, "unit": "nM"}]}]}
